{
  "source": "patent US20070269492A1",
  "about": "“New product and use and manufacture thereof” (priority 2006, published 2007)",
  "key": {"[1]": {"conditions": "cited from earlier work"}, "[2]": {"text": "Absorption of nicotine from the oral cavity to the systemic circulation is dependent on the pH of the saliva, pH of the blood plasma and the pKa of nicotine, which is about 7.8. Assuming a pH of the saliva of 6.8, only about 10% of the nicotine will be in the free base form. Thus, in order to promote absorption of nicotine in a free base form, which is the form predominantly absorbed through the mucosa, the pH of the saliva must preferably be increased to at least pH 7 and to at most pH 10, more preferably to at least pH 8 and at most pH 9.5. At a pH of 8.8 about 90% of the nicotine will then be in the free base form."}},
  "note": "Read-outs that look alike come from different tables or passages of the source.",
  "data": [
    {"smiles": "CN1CCCC1c1cccnc1", "note": "(stereo not drawn) [nicotine, 3-(1-methyl-2-pyrrolidinyl)-pyridine]", "values": [
      {"measurement": "single dose able to kill an adult", "setting": "[1]", "result": "Approximately 40 milligrams"},
      {"measurement": "nicotine in the free base form", "setting": "[2]; pH 8.8", "result": "about 90%"},
      {"measurement": "nicotine in the free base form", "setting": "[2]; saliva pH 6.8", "result": "about 10%"}
    ]}
  ]
}
